Experimental data published in publication PMC10467532, “Design, synthesis, and biological evaluation of thiazole/thiadiazole carboxamide scaffold-based derivatives as potential c-Met kinase inhibitors for cancer treatment” (Journal of Enzyme Inhibition and Medicinal Chemistry, 2023).

Experiments:
c-Met = molecular target: T1, c-Met (Homo sapiens, UniProt P08581); assay: In vitro c-Met enzymatic assay (HTRF); format: biochemical; conditions: HTRF assay; mean ± SD, triplicate; read-out: IC50 against c-Met
T1 construct: purchased Invitrogen (Waltham, MA)
T1 sequence (P08581 25-1390): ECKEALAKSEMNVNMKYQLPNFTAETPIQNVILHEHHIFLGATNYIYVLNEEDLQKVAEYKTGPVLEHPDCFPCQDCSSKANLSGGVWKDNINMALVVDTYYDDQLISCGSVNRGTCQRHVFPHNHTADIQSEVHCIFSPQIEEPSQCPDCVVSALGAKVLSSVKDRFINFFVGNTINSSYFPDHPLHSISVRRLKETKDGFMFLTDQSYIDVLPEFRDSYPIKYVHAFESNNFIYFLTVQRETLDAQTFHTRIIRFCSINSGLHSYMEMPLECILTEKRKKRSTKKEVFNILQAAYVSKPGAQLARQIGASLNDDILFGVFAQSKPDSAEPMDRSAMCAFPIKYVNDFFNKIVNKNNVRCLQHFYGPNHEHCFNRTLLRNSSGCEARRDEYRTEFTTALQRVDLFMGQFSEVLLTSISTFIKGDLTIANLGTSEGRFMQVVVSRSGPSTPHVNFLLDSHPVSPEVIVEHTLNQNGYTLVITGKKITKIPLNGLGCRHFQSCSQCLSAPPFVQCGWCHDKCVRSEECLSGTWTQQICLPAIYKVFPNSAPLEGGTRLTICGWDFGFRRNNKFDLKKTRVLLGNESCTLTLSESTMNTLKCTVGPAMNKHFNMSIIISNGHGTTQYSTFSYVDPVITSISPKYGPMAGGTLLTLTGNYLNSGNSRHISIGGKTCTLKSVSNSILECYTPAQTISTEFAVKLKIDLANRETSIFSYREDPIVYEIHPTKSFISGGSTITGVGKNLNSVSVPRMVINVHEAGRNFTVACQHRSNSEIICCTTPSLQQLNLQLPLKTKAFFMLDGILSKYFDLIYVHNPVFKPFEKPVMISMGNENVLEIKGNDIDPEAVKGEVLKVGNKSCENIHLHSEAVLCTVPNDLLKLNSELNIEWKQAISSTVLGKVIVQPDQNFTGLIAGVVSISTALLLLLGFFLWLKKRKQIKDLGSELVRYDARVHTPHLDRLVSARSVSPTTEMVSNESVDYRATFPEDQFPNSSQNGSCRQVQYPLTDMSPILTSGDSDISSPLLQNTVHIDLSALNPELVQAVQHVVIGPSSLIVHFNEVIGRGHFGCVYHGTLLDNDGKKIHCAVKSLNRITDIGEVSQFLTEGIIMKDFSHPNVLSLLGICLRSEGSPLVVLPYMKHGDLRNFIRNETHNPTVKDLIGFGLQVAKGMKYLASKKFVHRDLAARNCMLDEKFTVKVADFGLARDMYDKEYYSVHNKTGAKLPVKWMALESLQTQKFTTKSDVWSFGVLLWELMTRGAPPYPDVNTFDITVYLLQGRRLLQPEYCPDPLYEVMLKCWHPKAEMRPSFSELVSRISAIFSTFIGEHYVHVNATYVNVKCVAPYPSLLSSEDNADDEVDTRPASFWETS
Method: Inhibition of target compounds on c-Met kinase activity was measured by using the homogeneous time-resolved fluorescence (HTRF) assay.
The tyrosine kinases inhibitory activities of target compounds were evaluated in 384-well microtiter plates using purified kinases purchased from Invitrogen (Waltham, MA) by homogeneous time-resolved fluorescence (HTRF) assay. The HTRF KinEASE TK kit was performed according to the instructions. After the kinases and test compounds were incubated at 25–30 °C for 5 min, the kinase reactions were initiated by addition of 39 μL of kinase reaction buffer solution and incubated at 25–30 °C for 30 min. The reactions were quenched by addition 10 µL mixed detection solution. […] The inhibition rate (%) was calculated using the following equation: inhibition rate = [(activity of enzyme with tested compound – min)/(max – min)] × 100 (max: the enzyme activity in the presence of enzyme, substrates and cofactors; min: the enzyme activity in the presence of substrates, cofactors and in the absence of enzyme). IC50 value was calculated from the inhibition curve using GraphPad Prism 5.0 software (La Jolla, CA).

A549 = assay: MTT antiproliferative assay, A549; conditions: Homo sapiens, A549, 48 h, read-out: IC50 A549
Method: (§1) MTT assay was used to determine the cytotoxic activity of target compounds against different cell lines. […] Then, the cells were treated with five doses of test compounds (pre-dissolved in DMSO), and 0.1% DMSO was used as a negative control. […] The results expressed as IC50 were the average of three determinations calculated by using the Bacus Laboratories Incorporated Slide Scanner (Bliss) software.

HT-29 = assay: MTT antiproliferative assay, HT-29; conditions: Homo sapiens, HT-29, 48 h, read-out: IC50 HT-29
Method: as §1

MKN-45 = assay: MTT antiproliferative assay, MKN-45; conditions: Homo sapiens, MKN-45, 48 h, read-out: IC50 MKN-45
Method: as §1

MDA-MB-231 = assay: MTT antiproliferative assay, MDA-MB-231; conditions: Homo sapiens, MDA-MB-231, 48 h, read-out: IC50 MDA-MB-231
Method: as §1

FHC = assay: MTT cytotoxicity assay, normal FHC cells; conditions: Homo sapiens, 48 h, read-out: IC50 FHC
Method: as §1

HUVEC = assay: MTT cytotoxicity assay, normal HUVEC cells; conditions: Homo sapiens, 48 h, read-out: IC50 HUVEC
Method: as §1

SMILES	IC50 (c-Met) [µM]	melting point [°C]	IC50 (A549) [µM]	IC50 (HT-29) [µM]	IC50 (MKN-45) [µM]	IC50 (MDA-MB-231) [µM]	IC50 (FHC) [µM]	IC50 (HUVEC) [µM]
COc1cc2nccc(Oc3ccc(NC(=O)c4nnc(-c5ccccc5)s4)cc3)c2cc1OC [Compound 51c, N-(4-((6,7-Dimethoxyquinolin-4-yl)oxy)phenyl)-5-phenyl-1,3,4-thiadiazole-2-carboxamide]	0.0457 ± 0.00388	141 to 143	20.6 ± 1.96	29.3 ± 3.85	6.94 ± 1.06	34.7 ± 2.58	71.3 ± 5.25	53.5 ± 4.62
COc1cc2nccc(Oc3ccc(NC(=O)c4nnc(-c5ccc(F)cc5)s4)cc3)c2cc1OC [Compound 51d, N-(4-((6,7-Dimethoxyquinolin-4-yl)oxy)phenyl)-5-(4-fluorophenyl)-1,3,4-thiadiazole-2-carboxamide]	0.0415 ± 0.00276	136 to 138	19 ± 2.46	24.6 ± 1.87	6.65 ± 0.94	33.6 ± 4.35	68.6 ± 4.83	52.4 ± 3.85
COc1cc2nccc(Oc3ccc(NC(=O)c4nc(-c5ccccc5)cs4)cc3)c2cc1OC [Compound 51e, N-(4-((6,7-Dimethoxyquinolin-4-yl)oxy)phenyl)-4-phenylthiazole-2-carboxamide]	0.0345 ± 0.00465	63 to 65	16.6 ± 2.16	21.8 ± 1.66	5.86 ± 0.93	> 50	64.5 ± 6.12	56.5 ± 4.81
COc1cc2nccc(Oc3ccc(NC(=O)c4ncc(-c5ccccc5)s4)cc3)c2cc1OC [Compound 51g, N-(4-((6,7-Dimethoxyquinolin-4-yl)oxy)phenyl)-5-phenylthiazole-2-carboxamide]	0.0394 ± 0.00325	260 to 262	17.4 ± 2.23	23.4 ± 1.58	6.21 ± 0.85	32.8 ± 2.23	54.5 ± 3.25	48.4 ± 2.54
COc1cc2nccc(Oc3ccc(NC(=O)c4ncc(-c5ccc(F)cc5)s4)cc3)c2cc1OC [Compound 51h, N-(4-((6,7-Dimethoxyquinolin-4-yl)oxy)phenyl)-5-(4-fluorophenyl)thiazole-2-carboxamide]	0.0354 ± 0.00503	252 to 254	16.8 ± 1.58	22.7 ± 3.32	5.97 ± 0.98	34.2 ± 2.82	50.2 ± 2.89	42.1 ± 4.35
COc1cc2nccc(Oc3ccc(NC(=O)c4nc(-c5ccccc5)cs4)c(F)c3)c2cc1OC [Compound 51i, N-(4-((6,7-Dimethoxyquinolin-4-yl)oxy)-2-fluorophenyl)-4-phenylthiazole-2-carboxamide]	0.0312 ± 0.00416	112 to 114	15.6 ± 1.86	22.9 ± 2.43	5.35 ± 0.84	35.5 ± 4.62	60.2 ± 5.33	44.3 ± 5.64
COc1cc2nccc(Oc3ccc(NC(=O)c4nc(-c5ccccc5)cs4)cc3F)c2cc1OC [Compound 51j, N-(4-((6,7-Dimethoxyquinolin-4-yl)oxy)-3-fluorophenyl)-4-phenylthiazole-2-carboxamide]	0.0295 ± 0.00342	90 to 92	13.8 ± 1.76	19.6 ± 2.89	4.58 ± 0.75	32.3 ± 2.78	> 100	45.6 ± 5.12
COc1cc2nccc(Oc3ccc(NC(=O)c4nc(-c5ccccc5)cs4)c(Cl)c3)c2cc1OC [Compound 51k, N-(2-Chloro-4-((6,7-dimethoxyquinolin-4-yl)oxy)phenyl)-4-phenylthiazole-2-carboxamide]	0.033 ± 0.00266	201 to 203	14.5 ± 1.64	23.4 ± 4.32	6.87 ± 0.86	33.3 ± 4.21	> 100	> 100

Continued, in another order:

IC50 (c-Met) [µM]	melting point [°C]	IC50 (A549) [µM]	IC50 (HT-29) [µM]	IC50 (MKN-45) [µM]	IC50 (MDA-MB-231) [µM]	SMILES	IC50 (FHC) [µM]	IC50 (HUVEC) [µM]
0.0319 ± 0.00451	146 to 148	13.2 ± 2.41	20.9 ± 3.56	6.23 ± 0.72	32.1 ± 2.54	COc1cc2nccc(Oc3ccc(NC(=O)c4nc(-c5ccccc5)cs4)cc3Cl)c2cc1OC [Compound 51l, N-(3-Chloro-4-((6,7-dimethoxyquinolin-4-yl)oxy)phenyl)-4-phenylthiazole-2-carboxamide]	51.6 ± 3.96	40.9 ± 2.32
0.0398 ± 0.00547	209 to 211	14.1 ± 1.87	22.3 ± 1.75	6.43 ± 0.76	35.2 ± 4.23	COc1cc2nccc(Oc3ccc(NC(=O)c4nc(-c5ccccc5)cs4)c(C)c3)c2cc1OC [Compound 51m, N-(4-((6,7-Dimethoxyquinolin-4-yl)oxy)-2-methylphenyl)-4-phenylthiazole-2-carboxamide]	49.6 ± 5.04	38.8 ± 3.55
0.0296 ± 0.00384	115 to 117	12.2 ± 1.63	18.7 ± 3.13	4.23 ± 0.96	29.6 ± 3.54	COc1cc2ncnc(Oc3ccc(NC(=O)c4nc(-c5ccccc5)cs4)cc3F)c2cc1OC [Compound 51o, N-(4-((6,7-Dimethoxyquinazolin-4-yl)oxy)-3-fluorophenyl)-4-phenylthiazole-2-carboxamide]	50.3 ± 3.58	36.6 ± 4.23
0.0247 ± 0.00195	188 to 190	9.83 ± 1.22	15.2 ± 2.26	3.17 ± 0.84	28.1 ± 1.96	COc1cc2ncnc(Oc3ccc(NC(=O)c4nc(-c5ccc(F)cc5)cs4)cc3F)c2cc1OC [Compound 51p, N-(4-((6,7-Dimethoxyquinazolin-4-yl)oxy)-3-fluorophenyl)-4-(4-fluorophenyl)thiazole-2-carboxamide]	46.4 ± 6.24	33.6 ± 2.68
0.0385 ± 0.00423	251 to 253	12.9 ± 1.82	19.4 ± 2.48	5.95 ± 0.63	32.5 ± 2.68	O=C(Nc1ccc(Oc2ccnc3ccsc23)c(F)c1)c1nc(-c2ccccc2)cs1 [Compound 51q, N-(3-Fluoro-4-(thieno[3,2-b]pyridin-7-yloxy)phenyl)-4-phenylthiazole-2-carboxamide]	80.6 ± 4.52	69.5 ± 2.68
0.0353 ± 0.00519	223 to 225	10.5 ± 1.76	18.3 ± 3.62	5.02 ± 0.77	28.9 ± 3.13	O=C(Nc1ccc(Oc2ccnc3ccsc23)c(F)c1)c1nc(-c2ccc(F)cc2)cs1 [Compound 51r, N-(3-Fluoro-4-(thieno[3,2-b]pyridin-7-yloxy)phenyl)-4-(4-fluorophenyl)thiazole-2-carboxamide]	51.2 ± 4.61	40.6 ± 2.25
0.0433 ± 0.00625	95 to 97	18.4 ± 2.33	25.6 ± 1.76	6.05 ± 0.94	32.8 ± 2.7	O=C(Nc1ccc(Oc2ncnc3ccsc23)c(F)c1)c1nc(-c2ccccc2)cs1 [Compound 51s, N-(3-Fluoro-4-(thieno[3,2-d]pyrimidin-4-yloxy)phenyl)-4-phenylthiazole-2-carboxamide]	65.5 ± 5.56	43.4 ± 3.65
0.0404 ± 0.00366	146 to 148	14.5 ± 2.87	23.1 ± 3.34	5.45 ± 0.65	36.6 ± 2.83	O=C(Nc1ccc(Oc2ncnc3ccsc23)c(F)c1)c1nc(-c2ccc(F)cc2)cs1 [Compound 51t, N-(3-Fluoro-4-(thieno[3,2-d]pyrimidin-4-yloxy)phenyl)-4-(4-fluorophenyl)thiazole-2-carboxamide]	67.4 ± 4.38	41.4 ± 2.39
0.0404 ± 0.00553	78 to 80	16.8 ± 2.28	26.4 ± 3.22	5.53 ± 1.26	35.9 ± 2.52	O=C(Nc1ccc(Oc2ncnc3sccc23)c(F)c1)c1nc(-c2ccccc2)cs1 [Compound 51u, N-(3-Fluoro-4-(thieno[2,3-d]pyrimidin-4-yloxy)phenyl)-4-phenylthiazole-2-carboxamide]	48.2 ± 5.04	38.8 ± 3.53
0.0376 ± 0.00288	154 to 156	12.6 ± 1.83	19.2 ± 2.85	4.23 ± 0.94	29.1 ± 2.52	O=C(Nc1ccc(Oc2ncnc3sccc23)c(F)c1)c1nc(-c2ccc(F)cc2)cs1 [Compound 51v, N-(3-Fluoro-4-(thieno[2,3-d]pyrimidin-4-yloxy)phenyl)-4-(4-fluorophenyl)thiazole-2-carboxamide]	63.3 ± 3.35	54.4 ± 4.16
0.0243 ± 0.00167	205 to 207	7.26 ± 1.37	12.5 ± 2.39	2.53 ± 0.62	26.3 ± 3.09	O=C(Nc1ccc(Oc2ccnc(Cl)c2)c(F)c1)c1nc(-c2ccccc2)cs1 [Compound 51w, N-(4-((2-Chloropyridin-4-yl)oxy)-3-fluorophenyl)-4-phenylthiazole-2-carboxamide]	48.2 ± 5.04	38.6 ± 3.53
